Measured values taken from ChEMBL document CHEMBL1158242, “New bioactive cerebrosides from Arisaema amurense” (1996).

Key:
Hepatocyte [1] = experiment: Antihepatotoxic activity against CCl4-induced toxicity in rat hepatocytes assessed as effect on GPT activity at 5 uM by Reitman-Fankel method relative to control; type: functional
Hepatocyte [2] = experiment: Antihepatotoxic activity against CCl4-induced toxicity in rat hepatocytes assessed as effect on SDH activity at 5 uM by Geralch method relative to control; type: functional

SMILES | Activity (Hepatocyte [1]) [%] | Activity (Hepatocyte [2]) [%]
COc1cc(C2Oc3cc([C@H]4Oc5cc(O)cc(O)c5C(=O)[C@@H]4O)ccc3OC2CO)ccc1O (some centres not stated) [SILIBININ] | 48.7 | 42.3
CCCCCCCCC/C=C/CC/C=C/[C@@H](O)[C@H](CO[C@@H]1O[C@H](CO)[C@@H](O)[C@H](O)[C@H]1O)NC(=O)C(O)CCCCCCCCCCCCCCCC (some centres not stated) | 51.6 | 46.1
CCCCCCCCC/C=C\CC/C=C/[C@@H](O)[C@H](CO[C@@H]1O[C@H](CO)[C@@H](O)[C@H](O)[C@H]1O)NC(=O)C(O)CCCCCCCCCCCCCCCC (some centres not stated) | 35.1 | 36.9
CCCCCCCCC/C=C/CC/C=C/[C@@H](O)[C@H](CO[C@@H]1O[C@H](CO)[C@@H](O)[C@H](O)[C@H]1O)NC(=O)C(O)CCCCCCCCCCCCCCCCCC (some centres not stated) | 22.5 | 7.2
CCCCCCCCC/C=C\CC/C=C/[C@@H](O)[C@H](CO[C@@H]1O[C@H](CO)[C@@H](O)[C@H](O)[C@H]1O)NC(=O)[C@H](O)CCCCCCCCCCCCCCCCCC | 53.8 | 51.2
CCCCCCCCC/C=C\CC/C=C/[C@@H](O)[C@H](CO[C@@H]1O[C@H](CO)[C@@H](O)[C@H](O)[C@H]1O)NC(=O)C(O)CCCCCCCCCCCCCC (some centres not stated) | 54.4 | 71.2
